Blank lines part the entries; values can stand above or below the molecule they belong to.
Key:
Conditions in all cases: binder
BRD4 = BRD4 (Homo sapiens, UniProt O60885)
CK2a2 = CK2a2 (Homo sapiens, UniProt P19784)
CaMK1g = CaMK1g (Homo sapiens, UniProt Q96NX5)
DAPK1 = DAPK1 (Homo sapiens, UniProt P53355)
DRAK1 = molecular target: T1, DRAK1 (Homo sapiens, UniProt Q9UEE5)
T1 sequence (Q9UEE5 1-414): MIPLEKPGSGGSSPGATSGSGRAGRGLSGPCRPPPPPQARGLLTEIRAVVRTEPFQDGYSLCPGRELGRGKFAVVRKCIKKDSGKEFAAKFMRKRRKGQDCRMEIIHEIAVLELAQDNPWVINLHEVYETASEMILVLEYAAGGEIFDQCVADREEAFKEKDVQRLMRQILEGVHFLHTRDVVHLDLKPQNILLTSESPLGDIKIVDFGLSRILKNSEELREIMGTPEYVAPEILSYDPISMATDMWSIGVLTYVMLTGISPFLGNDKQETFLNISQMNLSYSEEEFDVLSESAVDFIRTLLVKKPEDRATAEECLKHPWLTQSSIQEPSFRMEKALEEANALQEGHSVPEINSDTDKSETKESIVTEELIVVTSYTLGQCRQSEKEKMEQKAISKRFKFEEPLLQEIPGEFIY

FGFR1 = FGFR1 (Homo sapiens, UniProt P11362)
FLT1 = FLT1 (Homo sapiens, UniProt P17948)
GPRK5 = GPRK5 (Homo sapiens, UniProt P34947)
Haspin = molecular target: T2, Haspin (Homo sapiens, UniProt Q8TF76)
T2 sequence (Q8TF76 1-798): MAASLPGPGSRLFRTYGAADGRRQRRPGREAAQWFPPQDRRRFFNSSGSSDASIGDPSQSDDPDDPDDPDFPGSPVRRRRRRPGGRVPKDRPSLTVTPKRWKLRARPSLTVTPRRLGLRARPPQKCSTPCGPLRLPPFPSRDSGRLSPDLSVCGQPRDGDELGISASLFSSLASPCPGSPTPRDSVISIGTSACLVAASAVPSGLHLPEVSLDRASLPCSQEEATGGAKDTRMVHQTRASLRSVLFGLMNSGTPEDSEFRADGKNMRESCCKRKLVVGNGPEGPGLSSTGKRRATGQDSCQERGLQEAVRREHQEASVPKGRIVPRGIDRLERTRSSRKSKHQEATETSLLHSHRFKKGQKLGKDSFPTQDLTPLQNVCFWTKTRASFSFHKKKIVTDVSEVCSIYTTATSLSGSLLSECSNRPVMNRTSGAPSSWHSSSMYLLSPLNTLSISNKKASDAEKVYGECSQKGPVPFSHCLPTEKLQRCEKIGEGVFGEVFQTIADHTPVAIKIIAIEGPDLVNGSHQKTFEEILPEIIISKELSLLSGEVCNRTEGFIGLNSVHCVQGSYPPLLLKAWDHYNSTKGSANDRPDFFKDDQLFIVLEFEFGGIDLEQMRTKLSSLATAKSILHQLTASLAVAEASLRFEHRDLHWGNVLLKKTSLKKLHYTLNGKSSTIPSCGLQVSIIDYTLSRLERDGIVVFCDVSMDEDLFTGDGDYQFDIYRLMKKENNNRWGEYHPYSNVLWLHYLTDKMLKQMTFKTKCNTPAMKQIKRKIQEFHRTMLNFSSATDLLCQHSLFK

NEK7 = NEK7 (Homo sapiens, UniProt Q8TDX7)
PIM3 = PIM3 (Homo sapiens, UniProt Q86V86)
p38a = p38a (Homo sapiens, UniProt Q16539)
Chain of p38a (Q16539 whole entry): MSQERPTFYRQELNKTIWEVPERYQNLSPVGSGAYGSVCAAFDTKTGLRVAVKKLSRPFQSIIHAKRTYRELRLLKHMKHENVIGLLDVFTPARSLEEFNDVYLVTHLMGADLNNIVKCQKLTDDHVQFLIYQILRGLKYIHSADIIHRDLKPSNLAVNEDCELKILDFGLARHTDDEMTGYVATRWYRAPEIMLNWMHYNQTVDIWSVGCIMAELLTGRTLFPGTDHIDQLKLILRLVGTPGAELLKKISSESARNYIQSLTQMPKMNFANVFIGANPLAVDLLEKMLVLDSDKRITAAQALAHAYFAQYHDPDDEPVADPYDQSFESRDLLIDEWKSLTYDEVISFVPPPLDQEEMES

Chain of NEK7 (Q8TDX7 whole entry): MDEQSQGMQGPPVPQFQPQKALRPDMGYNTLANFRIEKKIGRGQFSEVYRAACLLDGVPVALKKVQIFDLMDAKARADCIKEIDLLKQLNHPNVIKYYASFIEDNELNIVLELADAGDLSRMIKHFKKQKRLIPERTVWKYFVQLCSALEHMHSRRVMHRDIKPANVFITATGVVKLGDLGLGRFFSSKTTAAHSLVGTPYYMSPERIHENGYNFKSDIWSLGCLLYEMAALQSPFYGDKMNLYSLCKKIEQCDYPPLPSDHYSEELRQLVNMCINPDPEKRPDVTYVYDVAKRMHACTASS
Chain of CaMK1g (Q96NX5 whole entry): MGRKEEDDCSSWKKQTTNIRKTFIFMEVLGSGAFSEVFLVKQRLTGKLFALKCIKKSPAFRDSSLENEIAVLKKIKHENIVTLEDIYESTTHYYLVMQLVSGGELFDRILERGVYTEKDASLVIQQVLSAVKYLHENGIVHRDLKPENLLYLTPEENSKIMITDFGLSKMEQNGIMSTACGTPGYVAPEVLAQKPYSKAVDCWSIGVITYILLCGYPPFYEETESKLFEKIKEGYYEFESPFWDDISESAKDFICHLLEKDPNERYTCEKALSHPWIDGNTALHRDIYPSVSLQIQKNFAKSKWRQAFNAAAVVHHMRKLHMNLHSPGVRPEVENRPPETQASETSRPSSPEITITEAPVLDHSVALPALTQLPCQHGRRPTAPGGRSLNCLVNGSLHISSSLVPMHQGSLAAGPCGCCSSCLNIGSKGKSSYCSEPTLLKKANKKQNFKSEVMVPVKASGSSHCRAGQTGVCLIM
Chain of FLT1 (P17948 whole entry): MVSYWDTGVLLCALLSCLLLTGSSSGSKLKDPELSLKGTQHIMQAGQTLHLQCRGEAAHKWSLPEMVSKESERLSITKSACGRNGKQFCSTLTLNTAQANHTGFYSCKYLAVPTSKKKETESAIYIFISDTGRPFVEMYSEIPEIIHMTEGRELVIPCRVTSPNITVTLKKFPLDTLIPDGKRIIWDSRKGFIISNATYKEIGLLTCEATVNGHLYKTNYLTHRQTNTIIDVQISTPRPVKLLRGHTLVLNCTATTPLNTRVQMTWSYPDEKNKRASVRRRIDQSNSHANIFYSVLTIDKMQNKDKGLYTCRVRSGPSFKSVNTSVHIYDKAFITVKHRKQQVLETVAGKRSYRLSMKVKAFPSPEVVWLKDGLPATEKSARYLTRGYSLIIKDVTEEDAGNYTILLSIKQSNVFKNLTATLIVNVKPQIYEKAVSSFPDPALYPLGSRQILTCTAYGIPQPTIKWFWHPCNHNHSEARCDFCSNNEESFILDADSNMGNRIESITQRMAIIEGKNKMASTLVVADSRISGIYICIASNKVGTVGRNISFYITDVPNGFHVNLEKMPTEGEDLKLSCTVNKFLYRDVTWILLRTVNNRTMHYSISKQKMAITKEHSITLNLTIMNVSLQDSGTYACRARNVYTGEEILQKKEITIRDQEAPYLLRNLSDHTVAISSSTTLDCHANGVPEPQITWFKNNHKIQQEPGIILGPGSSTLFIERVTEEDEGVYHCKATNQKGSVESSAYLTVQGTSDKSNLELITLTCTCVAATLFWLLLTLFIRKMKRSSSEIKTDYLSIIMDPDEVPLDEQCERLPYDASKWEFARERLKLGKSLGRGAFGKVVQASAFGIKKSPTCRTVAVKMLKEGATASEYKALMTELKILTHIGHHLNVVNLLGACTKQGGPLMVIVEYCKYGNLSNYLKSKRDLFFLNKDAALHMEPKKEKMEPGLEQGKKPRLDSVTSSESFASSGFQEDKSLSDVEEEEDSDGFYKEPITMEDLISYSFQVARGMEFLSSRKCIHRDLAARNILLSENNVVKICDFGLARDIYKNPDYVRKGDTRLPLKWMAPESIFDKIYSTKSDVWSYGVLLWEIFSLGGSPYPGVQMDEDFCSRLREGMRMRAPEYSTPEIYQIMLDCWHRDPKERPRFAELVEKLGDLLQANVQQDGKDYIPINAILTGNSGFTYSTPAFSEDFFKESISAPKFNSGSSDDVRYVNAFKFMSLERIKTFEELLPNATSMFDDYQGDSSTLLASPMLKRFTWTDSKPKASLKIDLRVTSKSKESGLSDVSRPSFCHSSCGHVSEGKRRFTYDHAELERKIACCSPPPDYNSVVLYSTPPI
Chain of FGFR1 (P11362 whole entry): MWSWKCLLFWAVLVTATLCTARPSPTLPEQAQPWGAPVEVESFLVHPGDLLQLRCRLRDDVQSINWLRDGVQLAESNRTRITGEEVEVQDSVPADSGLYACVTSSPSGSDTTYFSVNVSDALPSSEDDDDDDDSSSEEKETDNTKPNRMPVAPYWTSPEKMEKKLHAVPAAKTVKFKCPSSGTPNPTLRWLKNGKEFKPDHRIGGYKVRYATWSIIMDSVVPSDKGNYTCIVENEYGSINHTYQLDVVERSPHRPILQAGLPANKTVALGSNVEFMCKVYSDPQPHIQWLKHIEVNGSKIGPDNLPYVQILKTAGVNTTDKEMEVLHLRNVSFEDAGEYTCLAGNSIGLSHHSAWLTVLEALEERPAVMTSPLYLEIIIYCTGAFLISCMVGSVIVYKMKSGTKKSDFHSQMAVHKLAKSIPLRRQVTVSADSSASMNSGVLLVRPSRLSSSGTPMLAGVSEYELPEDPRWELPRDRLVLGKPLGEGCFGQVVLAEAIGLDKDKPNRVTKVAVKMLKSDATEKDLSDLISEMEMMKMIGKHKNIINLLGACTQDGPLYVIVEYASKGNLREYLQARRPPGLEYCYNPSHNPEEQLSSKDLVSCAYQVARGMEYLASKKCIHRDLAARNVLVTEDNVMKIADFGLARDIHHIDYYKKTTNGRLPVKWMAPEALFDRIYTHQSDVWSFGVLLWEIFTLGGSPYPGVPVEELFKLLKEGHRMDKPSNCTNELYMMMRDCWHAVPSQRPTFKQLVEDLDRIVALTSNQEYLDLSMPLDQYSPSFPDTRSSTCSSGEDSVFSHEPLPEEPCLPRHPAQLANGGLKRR
Chain of GPRK5 (P34947 whole entry): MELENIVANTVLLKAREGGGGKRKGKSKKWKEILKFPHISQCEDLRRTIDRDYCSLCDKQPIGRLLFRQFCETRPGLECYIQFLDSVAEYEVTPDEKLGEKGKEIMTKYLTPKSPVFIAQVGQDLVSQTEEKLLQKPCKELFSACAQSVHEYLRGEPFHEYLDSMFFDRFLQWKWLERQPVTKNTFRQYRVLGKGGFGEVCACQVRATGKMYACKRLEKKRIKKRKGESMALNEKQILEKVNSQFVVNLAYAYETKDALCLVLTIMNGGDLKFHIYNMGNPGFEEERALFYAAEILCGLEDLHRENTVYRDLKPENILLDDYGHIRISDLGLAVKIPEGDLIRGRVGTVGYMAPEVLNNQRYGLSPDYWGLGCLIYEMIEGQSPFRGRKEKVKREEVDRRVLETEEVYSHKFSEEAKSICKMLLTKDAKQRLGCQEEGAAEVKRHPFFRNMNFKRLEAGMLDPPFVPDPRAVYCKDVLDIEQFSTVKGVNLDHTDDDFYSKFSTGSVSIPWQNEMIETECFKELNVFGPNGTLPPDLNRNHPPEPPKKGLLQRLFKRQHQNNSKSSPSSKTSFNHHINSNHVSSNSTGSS
Chain of CK2a2 (P19784 whole entry): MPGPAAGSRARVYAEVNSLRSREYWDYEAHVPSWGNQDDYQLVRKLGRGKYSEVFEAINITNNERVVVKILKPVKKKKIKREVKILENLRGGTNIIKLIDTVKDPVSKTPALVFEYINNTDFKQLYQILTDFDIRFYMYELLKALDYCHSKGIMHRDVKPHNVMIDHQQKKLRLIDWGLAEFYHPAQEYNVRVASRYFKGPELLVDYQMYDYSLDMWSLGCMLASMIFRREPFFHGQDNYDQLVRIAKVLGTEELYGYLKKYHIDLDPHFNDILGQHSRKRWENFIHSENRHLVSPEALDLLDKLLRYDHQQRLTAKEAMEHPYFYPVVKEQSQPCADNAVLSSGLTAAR

- ΔTm MRLW5 (20) (BRD4): -0.7 °C
- ΔTm MRLW5 (20) (CK2a2): -0.6 °C
- ΔTm MRLW5 (20) (CaMK1g): 3.9 °C
- ΔTm MRLW5 (20) (DAPK1): -0.8 °C
- ΔTm MRLW5 (20) (DRAK1): -0.5 °C
- ΔTm MRLW5 (20) (FGFR1): 0.4 °C
- ΔTm MRLW5 (20) (FLT1): 2.2 °C
- ΔTm MRLW5 (20) (GPRK5): 0.5 °C
- ΔTm MRLW5 (20) (Haspin): -0.4 °C
- ΔTm MRLW5 (20) (NEK7): -0.1 °C
- ΔTm MRLW5 (20) (PIM3): -1.2 °C
- ΔTm MRLW5 (20) (p38a): 1.0 °C
SMILES: CNc1ncc2cc(-c3ccc(-c4cccc(C)n4)cc3Cl)c(=O)n(CCCCN)c2n1 [compound 20, MRLW5]

- ΔTm MR24 (24) (BRD4): -1.7 °C
- ΔTm MR24 (24) (CK2a2): -2.0 °C
- ΔTm MR24 (24) (CaMK1g): 1.4 °C
- ΔTm MR24 (24) (DAPK1): -0.8 °C
- ΔTm MR24 (24) (DRAK1): 0.0 °C
- ΔTm MR24 (24) (FGFR1): 0.4 °C
- ΔTm MR24 (24) (FLT1): 1.0 °C
- ΔTm MR24 (24) (GPRK5): -1.0 °C
- ΔTm MR24 (24) (Haspin): -1.4 °C
- ΔTm MR24 (24) (NEK7): -0.9 °C
- ΔTm MR24 (24) (PIM3): -1.9 °C
- ΔTm MR24 (24) (p38a): 2.8 °C
SMILES: Cc1cccc(-c2ccc(-c3cc4cnc(NC(CO)CO)nc4n(CCCCN)c3=O)c(Cl)c2)n1 [compound 24, 8-(4-Aminobutyl)-6-(2-chloro-4-(6-methylpyridin-2-yl)phenyl)-2-((1,3-dihydroxypropan-2-yl)amino)pyrido[2,3-d]pyrimidin-7(8H)-one]

- ΔTm 23 (BRD4): -1.1 °C
- ΔTm 23 (CK2a2): -0.9 °C
- ΔTm 23 (CaMK1g): 9.5 °C
- ΔTm 23 (DAPK1): -0.4 °C
- ΔTm 23 (DRAK1): -1.0 °C
- ΔTm 23 (FGFR1): 0.7 °C
- ΔTm 23 (FLT1): 4.9 °C
- ΔTm 23 (GPRK5): 0.3 °C
- ΔTm 23 (Haspin): 1.5 °C
- ΔTm 23 (NEK7): -0.3 °C
- ΔTm 23 (PIM3): 0.3 °C
- ΔTm 23 (p38a): 6.7 °C
SMILES: CNc1ncc2cc(-c3ccc(-c4cccc(C)n4)cc3Cl)c(=O)n(C[C@H]3CC[C@H](N)CC3)c2n1 [compound 23, 23]

- ΔTm 25 (BRD4): -2.9 °C
- ΔTm 25 (CK2a2): -1.9 °C
- ΔTm 25 (CaMK1g): 6.5 °C
- ΔTm 25 (DAPK1): -1.0 °C
- ΔTm 25 (DRAK1): 0.9 °C
- ΔTm 25 (FGFR1): -0.4 °C
- ΔTm 25 (FLT1): 3.5 °C
- ΔTm 25 (GPRK5): 0.6 °C
- ΔTm 25 (Haspin): 1.9 °C
- ΔTm 25 (NEK7): -0.5 °C
- ΔTm 25 (PIM3): -0.8 °C
- ΔTm 25 (p38a): 6.1 °C
SMILES: Cc1cccc(-c2ccc(-c3cc4cnc(NCCCc5ccc(N)cc5)nc4n(CCCCN)c3=O)c(Cl)c2)n1 [compound 25, 8-(4-Aminobutyl)-2-((3-(4-aminophenyl)propyl)amino)-6-(2-chloro-4-(6-methylpyridin-2-yl)phenyl)pyrido[2,3-d]pyrimidin-7(8H)-one]

- ΔTm MR26 (26) (BRD4): -1.2 °C
- ΔTm MR26 (26) (CK2a2): -1.0 °C
- ΔTm MR26 (26) (CaMK1g): 4.3 °C
- ΔTm MR26 (26) (DAPK1): -0.7 °C
- ΔTm MR26 (26) (DRAK1): 0.2 °C
- ΔTm MR26 (26) (FGFR1): 0.3 °C
- ΔTm MR26 (26) (FLT1): 2.7 °C
- ΔTm MR26 (26) (GPRK5): -0.5 °C
- ΔTm MR26 (26) (Haspin): -1.5 °C
- ΔTm MR26 (26) (NEK7): -0.7 °C
- ΔTm MR26 (26) (PIM3): -0.1 °C
- ΔTm MR26 (26) (p38a): 4.0 °C
SMILES: Cc1cccc(-c2ccc(-c3cc4cnc(NCCCN5CCOCC5)nc4n(CCCCN)c3=O)c(Cl)c2)n1 [compound 26, MR26]

- ΔTm 22 (BRD4): 0.0 °C
- ΔTm 22 (CK2a2): -1.4 °C
- ΔTm 22 (CaMK1g): 5.1 °C
- ΔTm 22 (DAPK1): -0.8 °C
- ΔTm 22 (DRAK1): -1.3 °C
- ΔTm 22 (FGFR1): 1.1 °C
- ΔTm 22 (FLT1): 2.6 °C
- ΔTm 22 (GPRK5): -1.4 °C
- ΔTm 22 (Haspin): -1.2 °C
- ΔTm 22 (NEK7): 0.2 °C
- ΔTm 22 (PIM3): -1.2 °C
- ΔTm 22 (p38a): 0.7 °C
SMILES: CNc1ncc2cc(-c3ccc(-c4cccc(C)n4)cc3Cl)c(=O)n(CCC3CCNCC3)c2n1 [compound 22, 6-(2-Chloro-4-(6-methylpyridin-2-yl)phenyl)-2-(methylamino)-8-(2-(piperidin-4-yl)ethyl)pyrido[2,3-d]pyrimidin-7(8H)-one]

Reference: publication doi:10.1101/2023.11.24.568596v1 (biorxiv, 2023)
